Results reported in patent publication US8420012B2, “Use of monochlorourea to treat industrial waters” (Hercules Incorporated, priority 2009, dated 2013).
Values belong to the molecule of their own block, whether it stands above or below them.

Key:
Pseudomonas aeruginosa [1] = assay: Log10 reduction of viable P. aeruginosa in PBS after exposure to biocide (Example 8); assay type: cell-based; details: average of three
Experimental: The efficacy of dimethyl monochlorourea (DMCU) as a biocide, as synthesized in Example 5, was tested against the bacterium Pseudomonas aeruginosa. The Hach DPD chlorine test (Hach Company, Loveland, Colo.) was used to measure the total available chlorine concentrations of each biocide tested. Concentrations are reported in units of milligrams per liter as Cl2. P. aeruginosa was grown overnight in Trypticase Soy Broth at 37° C. The culture was split into aliquots of equal volume and suspended in physiologically buffered saline (PBS). […] The cultures were then evaluated by measuring viable cell counts after exposure to the biocides.

[2] = Stability of dimethylchlorourea aqueous solutions at different pH and temperature by UV-Vis Spectroscopy; assay type: physicochemical
Description: The stability of dimethylchlorourea was also examined under a variety of different conditions including pH and temperature. […] In the following table the initial concentration C0, the final concentration Cf, the final time tf and the half life t½, are given.

P. aeruginosa = assay: Viability of P. aeruginosa inoculated in paper mill process water, plated after 60 minutes; assay type: cell-based, Pseudomonas aeruginosa; details: papermill process water, average of three
Experimental: Paper mill process water samples were collected from a paper mill producing super calendered paper Samples were inoculated with P. aeruginosa, and then dosed with monochlorourea and sodium hypochlorite and plated after 60 minutes.

[3] = Effect of pH on stability of monochlorourea in D2O by 13C NMR; assay type: physicochemical
Description: The effect of pH on the stability of monochlorourea was significant. Carbon 13 labeled urea was used to examine the stability of the products overnight in D2O. […] However, completely acidifying all the solutions to a pH of 2.5 did have a significant effect on both the yield and the stability of the product.

[4] = Free vs. total chlorine (Hach DPD) of 1000 ppm solutions in synthetic hard water; assay type: physicochemical; details: synthetic hard water 250 ppm hardness, 35° C.
Experimental: Differences exist between monochlorourea and sodium hypochlorite, namely, sodium hypochlorite is a free chlorine generating biocide while monochlorourea is not. Free and total chlorine are measured using the DPD reagents from the Hach Company. The test is a colorimetric test in which more intense color development results as more oxidizing chlorine is present in the sample. The rate at which the dye reacts with the oxidizing chemical depends on whether the chlorine is free or bound. Total chlorine includes both free and bound chlorine.
The rate at which the dye reacts with total chlorine is accelerated by the addition of iodide to the test. This differentiates the free and total chlorine. The iodide reacts rapidly with bound oxidizing chlorine to form iodine and chloride. The iodine, a free oxidizing halogen, reacts very rapidly with the DPD dye.
One thousand ppm (as total Cl2) solutions of monochlorourea and sodium hypochlorite were prepared in synthetic hard water with 250 ppm hardness. Total and free chlorine readings were taken at 0 minutes, 30 minutes, 2 hours, and 4 hours. Untreated hard water solutions were used as blanks. The samples were stored at 35° C.+/−2° C. with mild stirring. pH values are provided as a reference points for the conditions of the chlorine species at the various test times.
Table 3 compares duplicate samples of sodium hypochlorite and monochlorourea. Significant differences exist between the free and total chlorine values of these chemicals. The release of free chlorine from monochlorourea is an energetically unfavorable reaction. Monochlorourea is a combined chlorine species that functions to kill bacteria not as a donor of free chlorine, but as a biocide itself.
Made-up 1 Liter sample of synthetic hard water with 250 ppm hardness.
Took 100 mL aliquots and set up duplicate samples of biocides at least 1,000 ppm based on total Chlorine readings.
Monitored pH, free chlorine and total chlorines at timed intervals of—0 min, 30 min, 2 hours, and 4 hours,
Monitored un-treated (blank) hard water at time 0 to serve as baseline.
Between sampling stored all samples in 35° C.+/−2° C. Heater/shaker with mild stirring.

Pseudomonas aeruginosa [5] = assay: Viable cell counts of P. aeruginosa in PBS after 60 minutes exposure to biocide (Example 6); assay type: cell-based; details: average of three
Experimental: The efficacy of monochlorourea as a biocide, as synthesized in Example 1, was tested against the bacterium Pseudomonas aeruginosa. The Hach DPD chlorine test (Hach Company, Loveland, Colo.) was used to measure the total available chlorine concentrations of each biocide tested. Concentrations are reported in units of milligrams per liter as Cl2. P. aeruginosa was grown overnight in Trypticase Soy Broth at 37° C. The culture was split into aliquots of equal volume, suspended in physiologically buffered saline (PBS). In this example, the cultures were exposed to […], 5.0 mg/L, 10.0 mg/L, and 15.0 mg/L of biocide for 60 minutes. The cultures were then evaluated by measuring viable cell counts after exposure to the biocides.

[6] = Stability in the presence of chlorine demand (0.1× nutrient broth), total chlorine by Hach DPD; assay type: physicochemical; details: 0.1× nutrient broth, initial 5 ppm chlorine, 37° C.
Experimental: This can be seen in Table 4 below. 20 mL aliquots of a 0.1× nutrient broth were used and the active species added such that the initial concentration of each was equivalent to 5 ppm chlorine as measured by the Hach. To prepare the nutrient broth Difco Nutrient Broth (8 grams) was dissolved in 1 L of deionized water, and subsequently diluted to 0.1× of the initial concentration prior to being autoclaved at 121° C. for 15 minutes. 100 mL solutions of each of the actives were made, and the concentration was measured using standard Hach test procedures on a BetzDearborn DR 2010 Spectrophotometer. At each time point a 1:10 dilution of the solution in DI water was made and placed in the spectrophotometer cell. Hach Permachem DPD Total Chlorine Reagent was added and the cell was placed into the spectrophotometer. The ppm of Cl2 was measured at 0, 1, 3, 6, 24, and 48 hours. A fresh dilution was made at each time point, if necessary, and the bottles of solution were placed in a shaking incubator at 37° C. in between runs. Dimethyl monochlorourea is notated as DMCU. Bis-hydroxymethyl chlorourea is BHMCU.

[7] = Time = 2 hours, listed as MCU-1
[8] = Time = 2 hours, listed as MCU-2
[9] = Time = 4 hours, listed as MCU-1
[10] = Time = 4 hours, listed as MCU-2
[11] = Time = 30 min, listed as Bleach-1
[12] = Time = 30 min, listed as Bleach-2
[13] = Time = 2 hours, listed as Bleach-1
[14] = Time = 2 hours, listed as Bleach-2
[15] = Time = 4 hours, listed as Bleach-1
[16] = Time = 4 hours, listed as Bleach-2

half life t½ ([2]; 50 ° C., pH 3): 4 days | final concentration Cf ([2]; 50 ° C., pH 3, C0 575 ppm, tf 1 Days): 491 ppm | half life t½ ([2]; 50 ° C., pH 5): 82 days | final concentration Cf ([2]; 50 ° C., pH 5, C0 576 ppm, tf 3 Days): 561 ppm | half life t½ ([2]; 50 ° C., pH 12): 0.417 days | final concentration Cf ([2]; 50 ° C., pH 12, C0 478 ppm, tf 6 Hours): 315 ppm | half life t½ ([2]; 75 ° C., pH 3): 0.75 days | final concentration Cf ([2]; 75 ° C., pH 3, C0 576 ppm, tf 24 Hours): 231 ppm | half life t½ ([2]; 75 ° C., pH 7): 14 days | final concentration Cf ([2]; 75 ° C., pH 7, C0 590 ppm, tf 1 Days): 562 ppm | half life t½ ([2]; 75 ° C., pH 12): 0.17 days | final concentration Cf ([2]; 75 ° C., pH 12, C0 423 ppm, tf 24 Hours): 4 ppm | half life t½ ([2]; RT, pH 2): 41 days | final concentration Cf ([2]; RT, pH 2, C0 393 ppm, tf 34 Days): 220 ppm | half life t½ ([2]; RT, pH 3): 54 days | final concentration Cf ([2]; RT, pH 3, C0 577 ppm, tf 28 Days): 402 ppm | half life t½ ([2]; RT, pH 5): 84 days | final concentration Cf ([2]; RT, pH 5, C0 603 ppm, tf 34 Days): 456 ppm | half life t½ ([2]; RT, pH 7): 104 days | final concentration Cf ([2]; RT, pH 7, C0 590 ppm, tf 33 Days): 474 ppm | half life t½ ([2]; RT, pH 9): 106 days | final concentration Cf ([2]; RT, pH 9, C0 589 ppm, tf 33 Days): 475 ppm | half life t½ ([2]; RT, pH 12): 2 days | final concentration Cf ([2]; RT, pH 12, C0 423 ppm, tf 1 Days): 280 ppm | half-life ([2]; aqueous solution, acidic and basic conditions at room temperature, read-out: half lives): 2 to 100 days
Structure (SMILES): CNC(=O)N(C)Cl [DMCU, N-chloro-N,N′-dimethylurea]
log10 reduction of viable cfu/mL (LR) (Pseudomonas aeruginosa [1]; 0.3 mg/L): 0.45 log10 | log10 reduction of viable cfu/mL (LR) (Pseudomonas aeruginosa [1]; 0.9 mg/L): 1.49 log10 | log10 reduction of viable cfu/mL (LR) (Pseudomonas aeruginosa [1]; 1.5 mg/L): 3.99 log10

Free Cl ([4]; Time = 0): 0 ppm | Tot Cl ([4]; Time = 0, listed as MCU-1): 1620 ppm | Tot Cl ([4]; Time = 0, listed as MCU-2): 1190 ppm | Free Cl ([4]; Time = 30 min, listed as MCU-1): 10 ppm | Tot Cl ([4]; Time = 30 min, listed as MCU-1): 1500 ppm | Free Cl ([4]; Time = 30 min, listed as MCU-2): 20 ppm | Tot Cl ([4]; Time = 30 min, listed as MCU-2): 1210 ppm | Free Cl [4, 7]: 10 ppm | Tot Cl [4, 7]: 1490 ppm | Free Cl [4, 8]: 30 ppm | Tot Cl [4, 8]: 1120 ppm | Free Cl [4, 9]: 10 ppm | Tot Cl [4, 9]: 1230 ppm | Free Cl [4, 10]: 20 ppm | Tot Cl [4, 10]: 1000 ppm
Structure (SMILES): NC(=O)NCl [MCU, N-chlorourea]
log10 of viable cfu/mL (P. aeruginosa; 1.0 mg/l): 9.9 log10 cfu/mL | log10 of viable cfu/mL (P. aeruginosa; 3.0 mg/l): 4.3 log10 cfu/mL | log10 of viable cfu/mL (P. aeruginosa; 5.0 mg/l): 3.2 log10 cfu/mL | log10 of viable cfu/mL (P. aeruginosa; 10.0 mg/l): 3.1 log10 cfu/mL | Stability by 13C NMR ([3]; acidic conditions (pH of 2.5), overnight): no indication by ^13C NMR of any decomposition | Stability by 13C NMR ([3]; basic conditions, 12 hours): no peak in the ^13C NMR from chlorourea could be detected | log10 of viable cfu/mL remaining after exposure (Pseudomonas aeruginosa [5]; 5.0 mg/L as Cl2, 60 minutes): 4.0 log10 cfu/mL | log10 of viable cfu/mL remaining after exposure (Pseudomonas aeruginosa [5]; 10.0 mg/L as Cl2, 60 minutes): 2.7 log10 cfu/mL | log10 of viable cfu/mL remaining after exposure (Pseudomonas aeruginosa [5]; 15.0 mg/L as Cl2, 60 minutes): 2.3 log10 cfu/mL

Structure (SMILES): NCl [monochloramine]
Stability: total chlorine remaining relative to initial ([6]; 0 hr): 100% | Stability: total chlorine remaining relative to initial ([6]; 3 hrs): 24% | Stability: total chlorine remaining relative to initial ([6]; 6 hrs): 6% | Stability: total chlorine remaining relative to initial ([6]; 24 hrs): 2% | Stability: total chlorine remaining relative to initial ([6]; 48 hrs): 1%

Structure (SMILES): [Na+].[O-]Cl [NaOCl, Sodium Hypochlorite]
log10 of viable cfu/mL (P. aeruginosa; 1.0 mg/l): 9.9 log10 cfu/mL | log10 of viable cfu/mL (P. aeruginosa; 3.0 mg/l): 9.8 log10 cfu/mL | log10 of viable cfu/mL (P. aeruginosa; 5.0 mg/l): 8.7 log10 cfu/mL | log10 of viable cfu/mL (P. aeruginosa; 10.0 mg/l): 4.5 log10 cfu/mL | log10 reduction of viable cfu/mL (LR) (Pseudomonas aeruginosa [1]; 1 mg/L): 5.3 log10 | log10 reduction of viable cfu/mL (LR) (Pseudomonas aeruginosa [1]; 3 mg/L): 5.4 log10 | log10 reduction of viable cfu/mL (LR) (Pseudomonas aeruginosa [1]; 5 mg/L): 6.7 log10 | Free Cl ([4]; Time = 0, listed as Bleach-1): 900 ppm | Tot Cl ([4]; Time = 0, listed as Bleach-1): 950 ppm | Free Cl ([4]; Time = 0, listed as Bleach-2): 950 ppm | Tot Cl ([4]; Time = 0, listed as Bleach-2): 1060 ppm | Free Cl [4, 11]: 860 ppm | Tot Cl [4, 11]: 890 ppm | Free Cl [4, 12]: 880 ppm | Tot Cl [4, 12]: 1020 ppm | Free Cl [4, 13]: 810 ppm | Tot Cl [4, 13]: 920 ppm | Free Cl [4, 14]: 840 ppm | Tot Cl [4, 14]: 1010 ppm | Free Cl [4, 15]: 840 ppm | Tot Cl [4, 15]: 940 ppm | Free Cl [4, 16]: 950 ppm | Tot Cl [4, 16]: 1040 ppm | Stability: total chlorine remaining relative to initial ([6]; 0 hr): 100% | Stability: total chlorine remaining relative to initial ([6]; 3 hrs): 22% | Stability: total chlorine remaining relative to initial ([6]; 6 hrs): 6% | Stability: total chlorine remaining relative to initial ([6]; 24 hrs): 2% | Stability: total chlorine remaining relative to initial ([6]; 48 hrs): 1% | log10 of viable cfu/mL remaining after exposure (Pseudomonas aeruginosa [5]; 5.0 mg/L as Cl2, 60 minutes): 9.7 log10 cfu/mL | log10 of viable cfu/mL remaining after exposure (Pseudomonas aeruginosa [5]; 10.0 mg/L as Cl2, 60 minutes): 9.1 log10 cfu/mL | log10 of viable cfu/mL remaining after exposure (Pseudomonas aeruginosa [5]; 15.0 mg/L as Cl2, 60 minutes): 4.4 log10 cfu/mL
